{"source": "patent US20170137458A1", "about": "“OXYSTEROLS FOR USE IN THE TREATMENT AND PREVENTION OF DISEASES CAUSED BY VIRUSES” (priority 2014, published 2017)", "key": {"HPV PsV (protein L1)": {"system": "HPV PsV (protein L1)", "test": "Assay for adhesion of the papillomavirus to the cell surface: Western blot analysis", "assay_type": "cell-based, human papillomavirus", "conditions": "Hela cells treated 16 hours, PsV 4 hours at 4° C.", "from_the_text": "L1 was detected using the murine monoclonal antibody (Ab30908, Abcam, Cambridge, UK) at a dilution of 1:2000, followed by secondary antibody IgG-HRP (Santa Cruz Biotechnology Inc.). The actin was detected using an anti-actin murine monoclonal antibody (MAB1501R, Millipore), followed by secondary antibody IgG-HRP (Santa Cruz Biotechnology Inc.)."}, "human rotavirus Wa [1]": {"system": "human rotavirus Wa", "test": "Infectivity assay for rotavirus repeated on Caco2 cells, strain Wa", "assay_type": "cell-based", "conditions": "Caco-2", "from_the_text": "The results of the antiviral assays performed treating with 25OHC and 27OHC were confirmed repeating the infectivity assays on Caco2 cells."}, "human rhinovirus 1A [2]": {"system": "human rhinovirus 1A", "test": "Infectivity assay with rhinovirus (plaque count, HeLa cells)", "protocol": "The human rhinovirus 1A (ATCC® VR-1559) was acquired from ATCC. The virus was propagated in HeLa cells, at 33° C. with 5% of CO2. When the cytopathic effect (CPE) had fully developed, cells and supernatants were collected, frozen and thawed three times, clarified and divided into aliquots. The viruses were kept at −70° C. The rhinovirus titres were determined by means of the standard plaque assay. In short, the HeLa cells were seeded 2 days prior to the infection in plates with 96 wells, reaching 60%-70% confluence at the time of the infection. The viral suspension was serially diluted in DMEM supplemented with 2% fetal bovine serum and inoculated; the infected wells were incubated at 33° C. for 1 hour, allowing the viruses to adhere and enter the cells. The cells were subsequently washed with medium and covered with a 1:1 mixture of 1.6% SeaPlaque agarose (BioWhittaker Molecular Applications) and DMEM 2X [26.76 g DMEM (Gibco BRL), 20 ml of L-glutamine (Gibco BRL), 4.4 g of sodium bicarbonate (Sigma, St. Louis, Mo.), FBS 40 ml (Sigma, St. Louis, Mo.) and 1000 ml of water]. The plates were incubated at 33° C. for 3 days. At the end of the incubation, the plates were fixed with 7.5% formaldehyde (Fluka) and coloured with crystal violet (Sigma, St. Louis, Mo.). The number of plaques formed was then counted; the virus titres were expressed in terms of plaque-forming units per ml (PFU/ml).\nThe HeLa cells, kept in DMEM supplemented with 10% FBS and 1% Zell Shield, were seeded (at 8×10^4 cells/well) in plates with 24 wells. The medium was removed and the cells were infected with 200 microlitres/well containing approximately 30 PFU of a stock of human rhinovirus 1A. The infected cells were incubated at 33° C. for 1 h, allowing the virus to adhere and enter the cells. […] The plates were incubated at 33° C. for 5 days. After the incubation, the plates were fixed with formaldehyde at 7.5% (Fluka), coloured with crystal violet (Sigma, St. Louis, Mo.) and the number of plaques formed was counted. The oxysterol concentration values able to determine 50% or 90% of the antiviral effect (EC50 and EC90 respectively) were calculated by means of regression analysis using the dose-response curves generated by the experimental data, using PRISM 5.00 (GraphPad Software, San Diego, Calif., USA)."}, "PsV of HPV-16": {"system": "PsV of HPV-16", "test": "microbe, parasite or virus in culture", "assay_type": "cell-based, human papillomavirus"}, "[3]": {"system": "human rotavirus (strain Wa)", "test": "Rotavirus yield reduction assay", "assay_type": "cell-based", "procedure": "The cells were treated at 37° C. with 25-, 27-, 7α-, 7β-hydroxycholesterol or 7-ketocholesterol at 5.6 μM for 20 hours, then washed with medium and infected with the human rotavirus at an MOI of 0.02 (strain Wa) activated with trypsin. After one hour, the cells were washed and fresh medium was added supplemented with 0.5 μg/ml of porcine trypsin. […] The assay was performed in triplicate and the results were confirmed on Caco2 cells. In an alternative protocol, the MA104 cells were treated with oxysterols—at the concentration indicated above—after the viral inoculum. The one-way variance analysis (ANOVA), followed by the Bonferroni test, was used to evaluate the statistical significance of the virus titre differences between the treated and non-treated samples. The significance was fixed at 95%.\nThe results of the pre-treatment assays are illustrated in FIGS. 5 (MA104 cells) and 6 (Caco2 cells)."}, "human rhinovirus 1A [4]": {"system": "human rhinovirus 1A", "test": "Rhinovirus yield reduction assay", "conditions": "HeLa cells, 5.6 μM after infection, collected 5 days after the infection", "protocol": "Each well was inoculated with 200 μl of a stock of human rhinovirus 1A containing approximately 30 PFU per well and incubated for 1 hour. […] The infected cells and the supernatants were collected 5 days after the infection (when a complete CPE was visible), and titred by means of the standard plaque method, as described above."}, "human rotavirus DS-1": {"system": "human rotavirus DS-1", "test": "Infectivity assay for rotavirus, MA104 cells, strain DS-1", "protocol": "(§1) The strains of human rotavirus Wa (ATCC® VR-2018), WI61 (ATCC® VR-2551), HRV 408 (ATCC® VR-2273), HRV 248 (ATCC® VR-2274) and DS-1 (ATCC® VR-2550) were acquired from the American Tissue Culture Collection (ATCC); the viruses were activated with 5 μg/ml porcine pancreatic trypsin of type IX (Sigma, St. Louis, Mo.) for 30 minutes at 37° C. and propagated in MA104 cells using MEM containing 0.5 μg of trypsin per ml as described previously (27).\n(§2) The antiviral effectiveness of the oxysterols of the invention was determined by means of infectivity inhibition assay. The assays were performed with confluent monolayers of MA104 cells seeded in plates with 96 wells, as described previously (28). […] The control samples were prepared by treating the cells with culture medium with the addition of equal volumes of ethanol. The cells were then washed with medium, and the rotavirus infection was performed at a multiplicity of infection (MOI) of 0.02. After the infection, the cells were washed with medium and incubated at 37° C. in an incubator humidified at 5% (vol/vol) CO2-95% (vol/vol) of air. After 16 hours, the infected cells were fixed with a cold acetone-methanol mixture (50:50), and the virus titres were determined by means of indirect immunocytochemistry. The inhibition of the virus infectivity was expressed as a percentage comparing the mean number of infective events in the treated and non-treated samples±the standard deviations. Where possible, the values of the oxysterol concentrations able to determine 50% or 90% of the antiviral effect (EC50 and EC90 respectively) were calculated by means of regression analysis using the dose-response curves generated by the experimental data, with the use of PRISM 5.00 (GraphPad Software, San Diego, Calif., USA)."}, "human rotavirus Wa [5]": {"system": "human rotavirus Wa", "test": "Infectivity assay for rotavirus, MA104 cells, strain Wa", "protocol": "as §1, §2"}, "human rotavirus HRV 248": {"system": "human rotavirus HRV 248", "test": "Infectivity assay for rotavirus, MA104 cells, strain HRV 248", "protocol": "as §1, §2"}, "[6]": {"conditions": "pre-treatment assay, 20 hours prior to the infection"}}, "note": "Read-outs that look alike come from different tables or passages of the source."}
{"smiles": "C[C@H](CCCC(C)(C)O)[C@H]1CC[C@H]2[C@@H]3CC=C4C[C@@H](O)CC[C@]4(C)[C@H]3CC[C@]12C", "note": "[25OHC, 25-hydroxycholesterol]", "values": [{"measurement": "adhesion of the PsV to the cell surface (L1 Western blot)", "setting": "HPV PsV (protein L1)", "value": "not able to inhibit adhesion of the PsV to the cell surface"}, {"measurement": "EC50", "setting": "human rotavirus Wa [1]", "value": 190, "unit": "nM"}, {"measurement": "EC90", "setting": "human rotavirus Wa [1]", "value": 1260, "unit": "nM"}, {"measurement": "EC50", "setting": "human rhinovirus 1A [2]; post-infection treatment assay", "value": 160, "unit": "nM"}, {"measurement": "EC90", "setting": "human rhinovirus 1A [2]; post-infection treatment assay", "value": 410, "unit": "nM"}, {"measurement": "EC50", "setting": "human rhinovirus 1A [2]; [6]", "value": 290, "unit": "nM"}, {"measurement": "EC90", "setting": "human rhinovirus 1A [2]; [6]", "value": 540, "unit": "nM"}, {"measurement": "EC50", "setting": "PsV of HPV-16; C33A cells, treated 16 hours before PsV, read-out: EC50", "value": 2060, "unit": "nM"}, {"measurement": "EC50", "setting": "PsV of HPV-16; Human papillomavirus, HeLa", "value": 2190, "unit": "nM"}, {"measurement": "EC50", "setting": "PsV of HPV-16; Human papillomavirus, SiHa", "value": 14800, "unit": "nM"}, {"measurement": "production of virus progenies", "setting": "[3]; Caco2 cells, pre-treatment 5.6 μM for 20 hours, collected 48 hours after infection", "value": "significantly limit (p<0.05) the production of virus progenies"}, {"measurement": "production of virus progenies", "setting": "[3]; MA104 cells, post-infection treatment 5.6 μM", "value": "confirm the in vitro effectiveness"}, {"measurement": "production of virus progenies", "setting": "[3]; MA104 cells, pre-treatment 5.6 μM for 20 hours, collected 48 hours after infection", "value": "significantly limit (p<0.05) the production of virus progenies"}, {"measurement": "production of viral progenies", "setting": "human rhinovirus 1A [4]", "value": "totally inhibit the production of viral progenies"}, {"measurement": "EC50", "setting": "human rotavirus DS-1", "value": 270, "unit": "nM"}, {"measurement": "EC90", "setting": "human rotavirus DS-1", "value": 5770, "unit": "nM"}, {"measurement": "EC50", "setting": "human rotavirus Wa [5]", "value": 160, "unit": "nM"}, {"measurement": "EC90", "setting": "human rotavirus Wa [5]", "value": 1370, "unit": "nM"}, {"measurement": "EC50", "setting": "human rotavirus HRV 248", "value": 110, "unit": "nM"}, {"measurement": "EC90", "setting": "human rotavirus HRV 248", "value": 1260, "unit": "nM"}]}
